Results taken from patent publication US6998413B1, “Treatment of neoplasms with yujungamycins” (priority 1999, dated 2006).
“Also recorded” adds a separate entry of the source.

How the values were obtained:
Human tumor cells = test: Hollow fiber assay (in vivo screen, National Cancer Institute); details: for Total Score (hollow fiber score): 12 cell lines × 2 sites × 2 doses, highest possible score 96; for Intraperitonal Score: fibers implanted intraperitoneally; for Intraperitonal Score / Subcutaneous Score: IP dosing QD×4, high and low dose, score of two per test with % T/C of 50 or less; for Subcutaneous Score: fibers implanted subcutaneously; for Cancer cell line types sensitive: hollow fiber assay
Experimental: Hollow fiber assays are carried out in the following way. Human tumor cells are cultivated in polyvinylidene fluoride hollow fibers, and a sample of each cell line is implanted into each of two physiological compartments (intraperitoneally and subcutaneously). Mice are treated with either a high or a low dose using a QD×4 schedule (four daily treatments) administered intraperitoneally. Altogether, twelve cell lines are studied resulting in 48 possible test combinations (12 cell lines×2 sites×2 doses). […] These compounds are covered by two patents. (Skibo, E. B. and Islam, I. Synthesis and Elucidation of Azamitosene and Iminoazamitosene. U.S. Pat. No. 5,015,742 1991; Skibo, E. B., Islam, I. and Alberts, D. S., Antineoplastic Agents and Methods of Using the Same. U.S. Pat. No. 5,246,955, 1993).

B-16 melanoma = B-16 melanoma model (syngraft) in C57/bl mice; format: in vivo; details: 1 and 3 mg/Kg IP on days 1, 5, and 9 after tumor implantation into front flank muscle
Experimental: These compounds were studied at two dose levels: 1 and 3 mg/Kg IP on days 1, 5, and 9 after tumor implantation into the front flank muscle. Shown in the bar graph is the area under the tumor versus time curve plotted against dose for each enantiomer.

Poly [dA] Poly [dT] = test: Alkylation of DNA by reduced PBIs; format: biochemical; details: reduced PBI (H2, Pd on carbon), pH 7.4 tris buffer, 30° C., 24 h
Experimental: (§1) Alkylation of DNA by Reduced PBIs. To a mixture of 1–2 mg of DNA (poly[dA]. poly[dT], poly[dG]. poly[dC], poly[dA-dT]. poly[dT-dA]) in 2.0 mL of 0.05 M of pH 7.4 tris buffer and 2 mg of Pd on carbon was added a five-to-one base pair equivalent amount of the PBI dissolved in 0.5 mL of dimethylsulfoxide. The resulting solution was degassed under argon for 30 min., after which the mixture was purged with H2 for 10 min. The solution was then purged with argon for 10 min. and the placed in a 30° C. bath for 24 h. The reaction was opened to the air and the catalyst was removed with a Millex-PF […] syringe filter. The filtrate was adjusted to 0.3M acetate with a 3M stock solution of pH 5.1 acetate and the diluted with two volumes of ethanol. The mixture was chilled at −20° C. for 12 h and the DNA pellet collected by centrifuging at 12,000 g for 20 min. The pellet was redissolved in water and then precipitated and centrifuged again. The resulting pellet was suspended in ethanol, centrifuged, and dried.

Poly [dG] Poly [dC] = test: Alkylation of DNA by reduced PBIs; format: biochemical; details: reduced PBI (H2, Pd on carbon), pH 7.4 tris buffer, 30° C., 24 h
Experimental: as §1

DT-diaphorase = test: DT-Diaphorase reduction kinetics; format: biochemical; details: pH 7.4 tris.HCl, anaerobic, 30° C., 0.3 mM NADH, 14.5 nM enzyme active sites
Experimental: DT-Diaphorase Reduction Kinetics Studies. Kinetic studies were carried out in 0.05 M pH 7.4 tris.HCl buffer, under anaerobic conditions, employing Thunberg cuvettes. A 2 mM stock solution of the appropriate PBI or APBI was prepared in dimethyl sulfoxide (DMSO). To the top port was added the quinone stock and to the bottom port was added DT-diaphorase and NADH in the tris buffer. The top and bottom ports were purged with argon for 20 minutes and equilibrated to 30° C. The ports were then mixed and the reaction followed at 296 nm for 25 minutes to obtain initial rates. The concentrations upon after mixing were 0.3 mM NADH, 1 to 20×10^-5 M quinone, and 14.5 nM (based on flavin) of enzyme active sites. The value of Δε was calculated from the initial and final absorbance values for complete quinone reduction, usual value for Δε is 6000 to 8000 M−1 cm−1. The value of Δε was used to calculate Vmax in M sec-1. The results were fitted to a Lineweaver-Burke plot from which kcat/Km values were calculated based on 14.5 nM of active sites.

cancer cell lines = test: Cytotoxicity (−log LC50) against cancer cell lines by cancer type; format: cell-based; details: for cytotoxicity (in words): cancer cell lines, FIG. 2 and FIG. 4
Text: Each −log LC50 value is the average of up to eight values.
FIG. 4. illustrates the plots of −Log LC50 versus cancer type for S(−)-1, 2, 3. Each cancer type represents the average of six to eight different cancer cell lines.

| Molecule | Total Score (hollow fiber score) (Human tumor cells) | Intraperitonal Score (Human tumor cells) | Subcutaneous Score (Human tumor cells) | Percentages of PBI Incorporation into DNA (Poly [dA] Poly [dT]) [%] | Percentages of PBI Incorporation into DNA (Poly [dG] Poly [dC]) [%] | Vmax (DT-diaphorase) [nM/s] | also measured |
| --- | --- | --- | --- | --- | --- | --- | --- |
| CC(=O)NC1CCn2c1nc1c2C(=O)C(C)=C(N2CC2)C1=O (stereo not drawn) [S(−)-A] | 52 | 38 | 14 | 17.4 | 6.6 | 47.6 | activity in B-16 melanoma model (area under the tumor versus time curve) (B-16 melanoma; listed as S(−) Yujungamycin A): failed to show much difference in activity between the enantiomers; also recorded: no apparent differences between the enantiomers; activity in B-16 melanoma model (area under the tumor versus time curve) (B-16 melanoma; listed as S(−)-Yujungamycin A): activity |
| 3-Amino-6-azindinyl-2,3-dihydro-7-methyl-1H-pyrrolo[1,2-a]benzimidazole-5,8-dione [R(+)-B] | – | – | – | – | – | 14.6 | Percentages of PBI Incorporation into DNA (Poly [dA] Poly [dT]; listed as R(+)−B): 60%; Percentages of PBI Incorporation into DNA (Poly [dG] Poly [dC]; listed as R(+)−B): 105% |
| CC(=O)OC1CCN2C1=NC1C(=O)C(N3CC3)=C(C)C(=O)C12 (centres unmarked) [PBI-A] | 48 | 40 | 8 | – | – | – | Cancer cell line types sensitive (Human tumor cells): melanoma, NSC lung cancer, breast cancer, and ovarian cancer; activity in the hollow fiber assay / in vivo (Human tumor cells): active in the hollow fiber assay |
| 3-Carbamido-6-aziridinyl-2,3-dihydro-7-methyl-1H-pyrrolo[1,2-a]benzimidazole-5,8-dione [R(+)-C] | – | – | – | 31 | 17 | 39.3 | – |
| 3-Amino-6-azindinyl-2,3-dihydro-7-methyl-1H-pyrrolo[1,2-a]benzimidazole-5,8-dione [S(−)-B] | – | – | – | – | – | – | Percentages of PBI Incorporation into DNA (Poly [dA] Poly [dT]; listed as S(−)−B): 186%; Percentages of PBI Incorporation into DNA (Poly [dG] Poly [dC]; listed as S(−)−B): 52% |
| CC1=C(N2CC2)C(=O)c2nc3n(c2C1=O)CCC3OC(N)=O (centres unmarked) [PBI-B] | 30 | 24 | 6 | – | – | – | Cancer cell line types sensitive (Human tumor cells): melanoma, NSC lung cancer, breast cancer, and ovarian cancer; activity in the hollow fiber assay / in vivo (Human tumor cells): active in the hollow fiber assay |
| 3-Carbamido-6-aziridinyl-2,3-dihydro-7-methyl-1H-pyrrolo[1,2-a]benzimidazole-5,8-dione [S(−)-C] | – | – | – | 70 | 12.4 | 21.8 | – |
| 3-Amino-6-azindinyl-2,3-dihydro-7-methyl-1H-pyrrolo[1,2-a]benzimidazole-5,8-dione [Yujungamycin B] | – | – | – | – | – | – | cytotoxicity (in words) (cancer cell lines): high potency; cytotoxicity (in words) (cancer cell lines; listed as 2): high cytotoxicity against non-small-cell lung, central nervous system, melanoma, ovarian, and renal cancers; change in cytotoxicity, 3-hydroxy changed to 3-amino (cancer cell lines; relative to the 3-hydroxy derivative): ˜million-fold change in cytotoxicity |
